Patent US20250195521A1 (Revolution Medicines, Inc., priority 2020, published 2025)

Experiments:
[1] = test system: AsPC-1 (K-Ras G12D); assay: CellTiter-Glo cell viability assay, AsPC-1; assay type: cell-based, human; conditions: Homo sapiens, ASPC1, 120 h; K-Ras G12D, 5-day treatment; read-out: AsPC-1 Cell Viability IC50
Method: Note—The following protocol describes a procedure for monitoring cell viability of K-Ras mutant cancer cell lines in response to a compound of the invention. Other RAS isoforms may be employed, though the number of cells to be seeded will vary based on cell line used.
Test compounds (132.5 nL) were directly dispensed into the assay plates containing cells. […] On day 5, assay plates and their contents were equilibrated to room temperature for approximately 30 minutes. […] Luminescence was measured using the PerkinElmer Enspire. Data were normalized by the following: (Sample signal/Avg. DMSO)*100. The data were fit using a four-parameter logistic fit.

[2] = test system: NCI-H358 (K-Ras G12C); assay: CellTiter-Glo cell viability assay, NCI-H358; assay type: cell-based, human; conditions: Homo sapiens, NCI-H358, 120 h, 5-day treatment; read-out: H358 Cell Viability assay data (K-Ras G12C, IC50)
How it was run: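 NCI-H358 cells were treated with test compounds dispensed directly into the assay wells and incubated until day 5. Viability was then read by CellTiter-Glo luminescence after a ~30 min room-temperature equilibration, normalized to the DMSO average (×100), and fit with a four-parameter logistic curve.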

[3] = molecular target: KRAS G12D (Homo sapiens (Human), UniProt P01116+P62937, G12D); assay: Ras-Raf disruption/FRET/MOA assay (BRAF RBD, Cyclophilin A); assay type: biochemical; conditions: read-out: KRAS G12D FRET IC50
How it was run: (§1)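 TR-FRET read after 1.5 h with 10 nM anti-His Eu-W1024 and 50 nM anti-GST APC, following 3 h at 25 °C of GMPPNP-loaded His6-Ras (12.5 nM), GST-BRAF RBD (50 nM) and Cyclophilin A (25 μM) with compound from 30 μM final, 10 points, 3-fold. IC50 reported; pH 7.3 HEPES, 100 mM NaCl.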

[4] = molecular target: KRAS Q61H (Homo sapiens (Human), UniProt P01116+P62937, Q61H); assay: as above; assay type: biochemical
How it was run: as §1

[5] = molecular target: KRAS G13D (Homo sapiens (Human), UniProt P01116+P62937, G13D); assay: as above; assay type: biochemical; conditions: read-out: KRAS G13D FRET data IC50
How it was run: as §1

[6] = molecular target: KRAS G12S (Homo sapiens (Human), UniProt P01116+P62937, G12S); assay: as above; assay type: biochemical; conditions: read-out: KRAS G12S FRET IC50
How it was run: as §1

[7] = molecular target: NRAS Q61R (Homo sapiens (Human), UniProt P01111+P62937, Q61R); assay: as above; assay type: biochemical
How it was run: (§2)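 25 μM tagless Cyclophilin A, 12.5 nM His6-Ras-GMPPNP and 50 nM GST-BRAF RBD in HEPES pH 7.3 buffer with 5 mM MgCl2, with compound (10-point 3-fold series from 30 μM final) for 3 h at 25 °C. Anti-His Eu and anti-GST APC then added for 1.5 h. IC50 from TR-FRET ratio decrease versus DMSO.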

[8] = molecular target: KRAS G12V (Homo sapiens (Human), UniProt P01116+P62937, G12V); assay: as above; assay type: biochemical; conditions: read-out: KRAS G12V FRET IC50
How it was run: as §1

[9] = molecular target: KRAS G13C (Homo sapiens (Human), UniProt P01116+P62937, G13C); assay: as above; assay type: biochemical; conditions: read-out: KRAS G13C FRET IC50
How it was run: as §1

[10] = molecular target: NRAS G12C (Homo sapiens (Human), UniProt P01111+P62937, G12C); assay: as above; assay type: biochemical; conditions: read-out: NRAS G12C FRET data IC50
How it was run: as §2

[11] = molecular target: KRAS G12C (Homo sapiens (Human), UniProt P01116+P62937, G12C); assay: as above; assay type: biochemical; conditions: read-out: KRAS G12C FRET IC50
How it was run: as §1

[12] = molecular target: NRAS WT (Homo sapiens (Human), UniProt P01111+P62937); assay: as above; assay type: biochemical
How it was run: as §2

[13] = molecular target: KRAS WT (Homo sapiens (Human), UniProt P01116+P62937); assay: as above; assay type: biochemical; conditions: read-out: KRAS WT FRET data IC50
How it was run: as §1

[14] = molecular target: NRAS Q61K (Homo sapiens (Human), UniProt P01111+P62937, Q61K); assay: as above; assay type: biochemical
How it was run: as §2

[15] = test system: Capan-1 cells (K-Ras G12V); assay: CellTiter-Glo cell viability, Capan-1; assay type: cell-based, human; conditions: Homo sapiens, CAPAN-1, 120 h, K-Ras G12V, 5-day treatment; read-out: Capan-1 Cell Viability IC50
How it was run: (§3)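 Compounds were dispensed directly onto seeded cells and incubated until day 5, then plates were equilibrated at room temperature for about 30 min before CellTiter-Glo luminescence readout. Signals were normalized as (sample/average DMSO)×100 and fitted with a four-parameter logistic model.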

[16] = molecular target: K-Ras G12C(GMP-PNP) binding to BRAF RBD (Homo sapiens (Human), UniProt P01116+P62937, G12C); assay: Disruption of BRAF RBD interaction with K-Ras (FRET / MOA assay), K-Ras G12C; assay type: biochemical; conditions: read-out: KRAS G12C FRET IC50
How it was run: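 TR-FRET readout: after 3 h compound incubation at 25 °C, anti-His Eu and anti-GST allophycocyanin (10 and 50 nM final) added for a further 1.5 h. Dilution series was 10-point, 3-fold, top 30 μM final. Ras–cyclophilin A ternary complex formation blocks the BRAF RBD interaction; IC50 derived from reduced FRET ratio relative to DMSO.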

[17] = test system: NCI-H358 cells (K-Ras G12C); assay: CellTiter-Glo cell viability, NCI-H358; assay type: cell-based, human; conditions: Homo sapiens, NCI-H358, 120 h, K-Ras G12C, 5-day treatment; read-out: H358 Cell Viability IC50
How it was run: as §3

Chain of KRAS G12C (P01116-2 other isoform, or with tags, fused parts or gaps G12C): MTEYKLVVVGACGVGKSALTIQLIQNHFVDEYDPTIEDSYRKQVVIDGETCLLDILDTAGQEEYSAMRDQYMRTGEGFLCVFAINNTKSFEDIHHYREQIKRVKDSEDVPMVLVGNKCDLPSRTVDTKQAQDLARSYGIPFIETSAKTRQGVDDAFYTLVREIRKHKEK
Chain of KRAS G12C (P62937 whole entry): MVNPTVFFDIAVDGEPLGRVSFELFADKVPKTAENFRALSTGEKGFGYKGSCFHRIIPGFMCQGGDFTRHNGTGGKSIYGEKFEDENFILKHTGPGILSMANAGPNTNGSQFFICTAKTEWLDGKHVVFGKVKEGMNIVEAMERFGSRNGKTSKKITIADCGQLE
Chain of NRAS G12C (P01111 whole entry G12C): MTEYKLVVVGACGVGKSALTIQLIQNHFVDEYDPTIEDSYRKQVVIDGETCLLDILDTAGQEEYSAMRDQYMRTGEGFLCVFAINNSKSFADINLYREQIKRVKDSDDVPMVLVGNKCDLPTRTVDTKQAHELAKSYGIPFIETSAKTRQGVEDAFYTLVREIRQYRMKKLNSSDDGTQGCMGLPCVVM
Chain of NRAS G12C (P62937 whole entry): as the sequence (P62937 whole entry) above
Chain of K-Ras G12C(GMP-PNP) binding to BRAF RBD (P01116 other isoform, or with tags, fused parts or gaps G12C): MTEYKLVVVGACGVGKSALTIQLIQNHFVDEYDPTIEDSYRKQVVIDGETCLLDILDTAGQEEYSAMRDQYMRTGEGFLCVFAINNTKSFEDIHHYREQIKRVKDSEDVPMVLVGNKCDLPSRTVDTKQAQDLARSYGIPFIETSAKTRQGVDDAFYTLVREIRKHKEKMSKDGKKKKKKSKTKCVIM
Chain of K-Ras G12C(GMP-PNP) binding to BRAF RBD (P62937 whole entry): as the sequence (P62937 whole entry) above
Chain of KRAS WT (P01116 other isoform, or with tags, fused parts or gaps): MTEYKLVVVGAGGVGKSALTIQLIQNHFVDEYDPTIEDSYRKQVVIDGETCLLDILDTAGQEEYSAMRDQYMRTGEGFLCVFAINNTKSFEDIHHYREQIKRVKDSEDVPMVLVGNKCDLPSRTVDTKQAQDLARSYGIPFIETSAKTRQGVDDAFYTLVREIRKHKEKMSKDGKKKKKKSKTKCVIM
Chain of KRAS WT (P62937 whole entry): as the sequence (P62937 whole entry) above
Chain of NRAS WT (P01111 whole entry): as the sequence (P01111 whole entry G12C) above, with C12G counted along it
Chain of NRAS WT (P62937 whole entry): as the sequence (P62937 whole entry) above
Chain of KRAS G12V (P01116 other isoform, or with tags, fused parts or gaps G12V): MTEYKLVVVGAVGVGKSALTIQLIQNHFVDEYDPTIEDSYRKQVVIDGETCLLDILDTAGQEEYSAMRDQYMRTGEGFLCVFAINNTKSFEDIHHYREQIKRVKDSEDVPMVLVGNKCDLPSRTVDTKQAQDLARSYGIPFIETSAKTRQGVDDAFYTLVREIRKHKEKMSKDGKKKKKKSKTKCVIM
Chain of KRAS G12V (P62937 whole entry): as the sequence (P62937 whole entry) above
Chain of KRAS Q61H (P01116 other isoform, or with tags, fused parts or gaps Q61H): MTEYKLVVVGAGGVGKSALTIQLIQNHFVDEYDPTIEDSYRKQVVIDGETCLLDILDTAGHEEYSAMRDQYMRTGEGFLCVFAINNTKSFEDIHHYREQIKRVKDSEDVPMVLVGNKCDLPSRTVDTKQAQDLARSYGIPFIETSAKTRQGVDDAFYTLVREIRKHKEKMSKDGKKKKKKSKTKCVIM
Chain of KRAS Q61H (P62937 whole entry): as the sequence (P62937 whole entry) above
Chain of NRAS Q61K (P01111 whole entry Q61K): as the sequence (P01111 whole entry G12C) above, with C12G, Q61K counted along it
Chain of NRAS Q61K (P62937 whole entry): as the sequence (P62937 whole entry) above
Chain of NRAS Q61R (P01111 whole entry Q61R): as the sequence (P01111 whole entry G12C) above, with C12G, Q61R counted along it
Chain of NRAS Q61R (P62937 whole entry): as the sequence (P62937 whole entry) above
Chain of KRAS G13D (P01116 other isoform, or with tags, fused parts or gaps G13D): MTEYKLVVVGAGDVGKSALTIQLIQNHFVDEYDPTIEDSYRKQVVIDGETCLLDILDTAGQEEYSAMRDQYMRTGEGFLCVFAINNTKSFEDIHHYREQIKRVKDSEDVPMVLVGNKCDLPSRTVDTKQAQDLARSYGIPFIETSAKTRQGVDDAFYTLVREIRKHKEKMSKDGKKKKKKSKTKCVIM
Chain of KRAS G13D (P62937 whole entry): as the sequence (P62937 whole entry) above
Chain of KRAS G12D (P01116 other isoform, or with tags, fused parts or gaps G12D): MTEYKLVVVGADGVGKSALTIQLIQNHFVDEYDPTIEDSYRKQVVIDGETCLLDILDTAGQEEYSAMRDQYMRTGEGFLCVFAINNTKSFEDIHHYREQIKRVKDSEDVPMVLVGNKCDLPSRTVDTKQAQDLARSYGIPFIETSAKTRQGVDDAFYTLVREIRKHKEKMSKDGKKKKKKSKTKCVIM
Chain of KRAS G12D (P62937 whole entry): as the sequence (P62937 whole entry) above
Chain of KRAS G12S (P01116 other isoform, or with tags, fused parts or gaps G12S): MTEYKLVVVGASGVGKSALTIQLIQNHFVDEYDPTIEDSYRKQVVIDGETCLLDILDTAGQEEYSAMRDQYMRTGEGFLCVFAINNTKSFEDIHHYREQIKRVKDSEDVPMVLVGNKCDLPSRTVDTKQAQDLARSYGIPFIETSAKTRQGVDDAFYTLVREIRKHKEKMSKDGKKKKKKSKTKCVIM
Chain of KRAS G12S (P62937 whole entry): as the sequence (P62937 whole entry) above
Chain of KRAS G13C (P01116 other isoform, or with tags, fused parts or gaps G13C): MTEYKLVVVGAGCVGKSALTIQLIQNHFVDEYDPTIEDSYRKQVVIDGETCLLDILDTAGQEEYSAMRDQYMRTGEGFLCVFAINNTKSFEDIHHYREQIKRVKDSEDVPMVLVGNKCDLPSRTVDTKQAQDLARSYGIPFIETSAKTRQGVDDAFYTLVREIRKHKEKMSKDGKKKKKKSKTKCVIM
Chain of KRAS G13C (P62937 whole entry): as the sequence (P62937 whole entry) above

IC50 [2] [nM] | IC50 [3] [nM] | IC50 [4] [nM] | IC50 [5] [nM] | IC50 [6] [nM] | IC50 [7] [nM] | IC50 [8] [nM] | IC50 [9] [nM] | IC50 [10] [nM] | IC50 [11] [nM] | IC50 [12] [nM] | IC50 [13] [nM] | IC50 [14] [nM] | IC50 [16] [nM] | IC50 [17] [nM] | SMILES | IC50 [1] [nM] | IC50 [15] [nM]
 |  |  |  |  |  |  |  |  |  |  |  |  |  |  | CCn1c(-c2cccnc2[C@H](C)OC)c2c3cc(ccc31)-c1cc(O)cc(c1)C[C@H](NC(=O)[C@H](C(C)C)N(C)C(=O)N1CCN(C(=O)[C@@H]3CN3)C(=O)C1)C(=O)N1CCC[C@H](N1)C(=O)OCC(C)(C)C2 (atropisomer, axis not shown) [Example 194] | > 10000 | 
10 to 100 | 1000 to 10000 | 100 to 1000 | 1000 to 10000 | 1000 to 10000 | 1000 to 10000 | 100 to 1000 | 100 to 1000 | 100 to 1000 | 100 to 1000 | 100 to 1000 | 1000 to 10000 | 100 to 1000 | 10 to 100 | 1000 to 10000 | CCn1c(-c2cccnc2[C@H](C)OC)c2c3cc(ccc31)-c1csc(n1)C[C@H](NC(=O)[C@@H]1CCO1)C(=O)N1CCC[C@H](N1)C(=O)OCC(C)(C)C2 [Compound A359] |  | 1000 to 10000
10 to 100 | 1000 to 10000 | 100 to 1000 | 100 to 1000 | 100 to 1000 | 1000 to 10000 | 1000 to 10000 | 100 to 1000 | 100 to 1000 | 100 to 1000 | 100 to 1000 | 100 to 1000 | 1000 to 10000 | 100 to 1000 |  | CCn1c(-c2cccnc2[C@H](C)OC)c2c3cc(ccc31)-c1csc(n1)C[C@H](NC(=O)[C@H](C(C)C)N(C)C(=O)N(C)C[C@H]1CCCN1C)C(=O)N1CCC[C@H](N1)C(=O)OCC(C)(C)C2 [Compound A473] |  | 100 to 1000
100 to 1000 | 1000 to 10000 | 100 to 1000 | 1000 to 10000 | 100 to 1000 | 1000 to 10000 | 1000 to 10000 | 100 to 1000 | 100 to 1000 | 100 to 1000 | 100 to 1000 | 100 to 1000 | 1000 to 10000 | 100 to 1000 | 100 to 1000 | CCn1c(-c2cccnc2[C@H](C)OC)c2c3cc(ccc31)-c1csc(n1)C[C@H](NC(=O)[C@H](C(C)C)N(C)C(=O)N1CC[C@H]1CN(C)C)C(=O)N1CCC[C@H](N1)C(=O)OCC(C)(C)C2 [Compound A508] |  | 100 to 1000
10 to 100 | 1000 to 10000 | 100 to 1000 | 1000 to 10000 | 1000 to 10000 | 1000 to 10000 | 1000 to 10000 | 100 to 1000 | 100 to 1000 | 100 to 1000 | 100 to 1000 | 100 to 1000 | 100 to 1000 | 100 to 1000 | 100 to 1000 | CCn1c(-c2cccnc2[C@H](C)OC)c2c3cc(ccc31)-c1csc(n1)C[C@H](NC(=O)[C@H](C(C)C)N(C)C(=O)N1CCN(C)[C@@H](c3ccccc3)C1)C(=O)N1CCC[C@H](N1)C(=O)OCC(C)(C)C2 [Compound A524] |  | 100 to 1000
100 to 1000 | 100 to 1000 | 10 to 100 | 100 to 1000 | 100 to 1000 | 100 to 1000 | 1000 to 10000 | 100 to 1000 | 100 to 1000 | 100 to 1000 | 100 to 1000 | 100 to 1000 | 100 to 1000 | 100 to 1000 | 10 to 100 | CCn1c(-c2cccnc2[C@H](C)OC)c2c3cc(ccc31)-c1csc(n1)C[C@H](NC(=O)[C@H](C(C)C)N(C)C(=O)N(C)[C@H]1CCN(C)C1)C(=O)N1CCC[C@H](N1)C(=O)OCC(C)(C)C2 [Compound A563] |  | 10 to 100
10 to 100 | 100 to 1000 | 100 to 1000 | 100 to 1000 | 100 to 1000 | 100 to 1000 | 100 to 1000 | 100 to 1000 | 100 to 1000 | 100 to 1000 | 100 to 1000 | 100 to 1000 | 100 to 1000 | 10 to 100 | 10 to 100 | CCn1c(-c2cccnc2[C@H](C)OC)c2c3cc(ccc31)-c1csc(n1)C[C@H](NC(=O)[C@H](C(C)C)N(C)C(=O)N1C[C@H]3CCN(C)[C@H]3C1)C(=O)N1CCC[C@H](N1)C(=O)OCC(C)(C)C2 [Compound A568] |  | 100 to 1000
10 to 100 | 100 to 1000 | 100 to 1000 | 100 to 1000 | 100 to 1000 | 1000 to 10000 | 1000 to 10000 | 100 to 1000 | 100 to 1000 | 100 to 1000 | 100 to 1000 | 100 to 1000 | 100 to 1000 | 100 to 1000 | 10 to 100 | CCn1c(-c2cccnc2[C@H](C)OC)c2c3cc(ccc31)-c1csc(n1)C[C@H](NC(=O)[C@H](C(C)C)N(C)C(=O)N(C)[C@H]1CCCN(C)C1)C(=O)N1CCC[C@H](N1)C(=O)OCC(C)(C)C2 [Compound A588] |  | 100 to 1000
 |  |  |  |  |  |  |  |  |  |  |  |  |  |  | CCn1c(-c2cccnc2[C@H](C)OC)c2c3cc(ccc31)-c1cc(O)cc(c1)C[C@H](NC(=O)[C@H](C(C)C)N(C)C(=O)N1CCN(C(=O)[C@H]3CN3)C(=O)C1)C(=O)N1CCC[C@H](N1)C(=O)OCC(C)(C)C2 [Example 143] | > 10000 | 
